Results from US5663205A, “Pharmaceutical composition for use in glaucoma treatment” (Senju Pharmaceutical Co. Ltd., priority 1992, dated 1997).

Legend:
[1] = tested on: Hypertensive Intraocular Pressure Induced by Laser Irradiation; experiment: Test Example 5: hypertensive intraocular pressure induced by laser irradiation, pigmented rabbits; format: in vivo; details: 0.5% aqueous solution
Method: Intraocular Pressure Reducing Activity of 0.5% Aqueous Solution of Amosulalol Hydrochloride on Hypertensive Intraocular Pressure Induced by Laser Irradiation in Pigmented Rabbits
With 5 male pigmented rabbits weighing about 2 kg used as test animals, 50 μl of 0.5% aqueous solution of amosulalol hydrochloride was applied in a 50 μl portion to one eye of each rabbit, with 50 μl of physiological saline being given to the other. 30 min later, a laser beam was irradiated onto 6 different spots (spot size: 200 μm, power of 0.5 W, for 0.1 sec) of the irises in both eyes in such a manner that the spots were located at an equal distance. Intraocular pressure was measured for both eyes using PTG before instillation as well as before laser irradiation and 15, 30 and 45 min after laser irradiation.
FIG. 7 is a graph showing the intraocular pressure reducing activity of 0.5% aqueous solution of amosulalol hydrochloride on hypertensive intraocular pressure induced by laser irradiation in pigmented rabbits, with time (min) after laser irradiation taken as abscissa and intraocular pressure (mmHg) as ordinate; each value in mean ± S.E. (the number in each case is 8). The signs "a" and "c" designate physiological saline and 0.5% aqueous solution of amosulalol hydrochloride, respectively.

[2] = tested on: Normal Intraocular Pressure; experiment: Test Example 1 (1): intraocular pressure reducing activity on normal intraocular pressure, pigmented rabbits; format: in vivo, pigmented rabbits (Dutch belted rabbits)
Method: Intraocular Pressure Reducing Activity of Amosulalol Hydrochloride on Normal Intraocular Pressure in Pigmented Rabbits Male pigmented rabbits (Dutch belted rabbits) weighing about 2 kg, after having been confirmed to be free from ocular abnormalities; were bred in a breeding room maintained at a temperature of 24± 4° C. and at a relative humidity of 55± 15%, while they were given solid food (Labo RG-RO manufactured by Nihon Nohsan Kogyo K.K.) at a daily rate of 100 g per rabbit and allowed free access to tap water as drinking water. As a test drug, amosulalol hydrochloride was processed into 0.05% (hereinafter, the term "%" is to be understood to designate "w/v %") and 1.0% aqueous solutions which were used in the test, and 0.5% timolol maleate ophthalmic solution [Timoptol (registered trademark): Ban-yu Pharmaceutical Co.] and physiological saline were used as a positive control drug and a control substance, respectively. (1) Measurement of intraocular pressure: Thirty two (32) rabbits were divided into four groups each consisting of 8 rabbits, and 50 μl of test drugs as well as the control drug and physiological saline were applied topically to one eye each of the individual rabbits, with the other being left untreated. Before instillation and 0.5, 1, 2, 3, 4, 6 and 8 hours after topical application,intraocular pressure for both of eyes of each rabbit was measured using a Pneumatonograph (manufactured by Alcon Co. Hereinafter referred to briefly as "PTG"). Shown in FIG. 1 are time-course changes of intraocular pressure taken with the eyes treated by instillation of each of the test drugs, control drug and physiological saline, with time (hour) after instillation taken as abscissa and intraocular pressure (mmHg as ordinate; each value in mean±S.E. (number of cases is 8). The signs "a", "b", "d" and "e" designate physiological saline, 0.05% aqueous solution of amosulalol hydrochloride, 1.0% aqueous solution of amosulalol hydrochloride, and 0.5% ophthalmic solution of timolol maleate, respectively.

α-adrenergic = details: cited from earlier work

COc1ccccc1OCCNCC(O)c1ccc(C)c(S(N)(=O)=O)c1.Cl (stereo not shown) [amosulalol hydrochloride, 5-[1-hydroxy-2-[2-(2-methoxyphenoxy)ethylamino]ethyl]-2-methylbenzenesulfonamide hydrochloride]
decrease in intraocular pressure before laser irradiation ([1]; 30 min after instillation, immediately before laser irradiation): 4.5 mmHg | suppressory activity against increase of the intraocular pressure ([1]; laser irradiation): exhibits suppressory activity against increase of the intraocular pressure | intraocular pressure after laser irradiation ([1]; physiological saline increased by 7.9 mmHg about 15 min after irradiation): increased to almost the same level as before instillation | maximum decrease in intraocular pressure ([2]; 0.05% aqueous solution, 2 hours after topical application): 3.6 mmHg | maximum decrease in intraocular pressure ([2]; 1.0% aqueous solution, 50 μl topical, 3 hours after instillation): 9.0 mmHg | decrease in intraocular pressure sustained until (time after instillation) ([2]; 1.0% aqueous solution, sustained from 30 min after instillation): 6 h | α-adrenergic blocking activity (α-adrenergic): exhibit both α-adrenergic and β-adrenergic blocking activities
